Key:
Assay type in all cases: physicochemical
[1] = diffusion coefficient of drug in the reservoir (Dr), release from drug-bearing film into stirred receptor solution; details: 30 percent w/w vinyl acetate-acrylate copolymer in 53:11:36 ethyl acetate:toluene:ethanol (Gelva RA-737); timolol free base
Method: When a solid reservoir is employed, the diffusion coefficient of the drug in the reservoir, Dr, is determined by first dissolving the drug to be used in a solution of matrix-forming polymer at a concentration below the saturation solubility of the drug in the polymer solution, and then coating the solution and allowing the coating to dry or curing the coating to form a drug bearing film. The coating may be made on a releasable surface so that a free film is employed in the diffusion coefficient determination or may be made on an impermeable backing material in which case the film with backing is employed in making the determination. […] The receptor solution, which is maintained at a constant temperature, preferably 32° C., is sampled at appropriate intervals and quantitative determination of drug concentration made by HPLC (high pressure liquid chromatography) with UV detection or by other suitable means based on the physical-chemical characteristics of the drug. The value for Dr is then determined by a nonlinear regression fit of observed data to either the earlier time or the late time approximation as is appropriate for drug release from a continuous matrix containing only dissolved drug as discussed in Baker et al, "Controlled Release: Mechanisms and Rates" in Advances in Experimental Medicine and Biology, Vol 47, page 41, Eds. Tanquary et al, Plenum Press, N.Y., 1974. […]

[2] = diffusion coefficient of drug in the membrane (Dm), side-by-side diffusion cell; details: 7.5 percent ethylene vinyl acetate copolymer film (PE-75)
Method: The diffusion coefficient of drug in the membrane, Dm or Dm', is determined by mounting the membrane between two chambers of a side-by-sidediffusion cell. A determined amount of drug in solution (donor phase) is placed in one chamber and a receptor solvent in the other, into which the drug diffuses and in which it will remain substantially below its saturation solubility (receptor phase). The cells are stirred while maintained in a constant temperature bath, preferably at 32° C. The receptor phase is sampled from time to time and assayed for drug, and steady state flux through the membrane calculated. Km, the partition coefficient between the donor solution and membrane, is determined by equilibrating a known volume of donor solution at 32° C., then assaying the solution for change in drug concentration to determine partitioning between membrane and donor. The diffusion coefficient of the drug in the membrane is calculated from the steady state Fick's law equation, which for semi-permeable membrane is
Initially, Dr was determined for timolol in a commercially available acrylate film-forming material, a 30 percent weight/weight (w/w) vinyl acetate-acrylate copolymer in 53:11:36 ethyl acetate:toluene:ethanol solvent (Gelva® RA-737 multipolymer solution obtained from Monsanto) in the manner previously described. […]

[3] = crystallization of dissolved drug in unitary solid reservoir of dissolved and undissolved drug
Excerpt: Generally, the structure of a transdermal bandage or device consists of (a) a transdermal delivery system comprising an impermeable backing, a drug-containing reservoir, a rate-controlling membrane on the side to be ultimately proximate to the skin of the patient and (b) a means of attaching the system to the dermal surface. In the known systems, the reservoir, the source of supply for the drug, whether a single solid unit, a walled unit or a unit employing drug containing micro-capsules within the reservoir structure, contains the drug partly in particulate form and partly in solution i.e., contains drug in excess of its saturation solubility. During use, the drug in solution migrates to the permeable membrane surface, passes through the membrane and onto the skin for absorption. As the dissolved drug passes through the membrane some of the undissolved drug dissolves and there is, until the supply of undissolved drug is exhausted, a mixture of both dissolved and undissolved drug in the reservoir. The presence of dissolved and undissolved drug is considered necessary to provide for the near zero order rate of delivery, zero order being the rate of delivery which is constant or independent of time. […]

Dr (diffusion coefficient of drug in reservoir) [1]: 1.58×10^-6 cm^2 /hour
Dm (diffusion coefficient of drug in membrane) [2]: 2.85×10^-6 cm^2 /hour
Compound: CC(C)(C)NC[C@H](O)COc1nsnc1N1CCOCC1 [timolol]
crystallization of dissolved drug after fabrication [3]: the dissolved drug often slowly crystallizes subsequent to fabrication

Reference: US4797284A, “Transdermal drug delivery system” (Merck & Co., Inc., priority 1986, dated 1989)
